Eight compounds from PubChem BioAssay (NCI) can be followed below.

What all share (experiment): NCI tumour cell line growth inhibition, 48 h
Assay [1] has as its system A549 NSCLC.
For assay [2], the system named is ACHN renal.
For assay [3], the system named is CAKI-1 renal.
The test system of assay [4] is HCT-116 colon.
For assay [5], the system named is KM12 colon.
For assay [6], the system named is NCI-H226 lung.
Assay [7] relates to NCI-H460 lung.
The subject of assay [8] is NCI-H522 lung.
In assay [9] the test system is OVCAR-3 ovarian.
The test system of assay [10] is OVCAR-8 ovarian.
The test system of assay [11] is SF-268 CNS.
Assay [12] relates to SF-295 CNS.
Assay [13] has as its system SF-539 CNS.
The subject of assay [14] is SK-MEL-28 melanoma.
The test system of assay [15] is SNB-75 CNS.
Assay [16] relates to U251 CNS.
For assay [17], the system named is UO-31 renal.
Assay [18] has as its system NCI/ADR-RES ovarian.
The subject of assay [19] is PC-3 prostate.
The test system of assay [20] is DU-145 prostate.

Structures are written as SMILES.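 Compound exposure: 48 hours, 5 concentrations, 96-well plates. At the TGI there is no net growth.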 A value given as a limit tells only on which side of the number the result lay.

Consider `O=S(Cc1cc2c(cc1Br)OCO2)c1ccccc1` (stereo unspecified), for which the TGI is more than 100 µM in assay [1]; more than 100 µM in assay [2]; more than 100 µM in assay [3]; more than 100 µM in assay [4]; 59.4 µM in assay [5]; more than 100 µM in [6]. The TGI in assay [7] was more than 100 µM; in assay [8], 56.3 µM; in assay [9], more than 100 µM; in assay [10], more than 100 µM; in assay [11] it was more than 100 µM; in assay [12], more than 100 µM. Further, the TGI in assay [13] is 91.2 µM; in assay [14], more than 100 µM; in [15] it was more than 100 µM; in assay [16], more than 100 µM; in [17] it was more than 100 µM.
Turning to `COC(=O)c1cc(C)n(NC(=O)OC(C)(C)C)c1C`, the TGI in [1], in [2], in [3], in assay [4], in [5] and in assay [6] was more than 100 µM throughout. Also, the TGI in assay [7], in assay [8], in [9], in assay [10], in assay [11] and in assay [12] was more than 100 µM throughout. Also, the TGI in [13], in [14], in assay [15], in assay [16] and in assay [17] was more than 100 µM each time.
On to `C1=c2ccccc2=C2C(=C(c3ccccc3)C(c3ccccc3)=NN2c2ccccc2)S1`, for which the TGI in [1], in [2], in [3], in assay [4], in assay [5] and in assay [6] was more than 100 µM throughout. For the same compound, the TGI in [7], in assay [8], in [10], in assay [11], in assay [12] and in assay [13] was more than 100 µM in each case. The TGI in [14], in assay [15], in assay [16] and in assay [17] was more than 100 µM throughout.
`COC(=O)CNC(=O)Nc1cc(N2C(=O)ON3C2C(C)(C)N(O)C3(C)C)ccc1C` (stereo unspecified): the TGI in assay [1], in assay [2], in [3], in assay [4], in [5] and in [6] was more than 100 µM throughout. Further, the TGI in [7], in [8], in [18], in assay [9], in [10] and in [19] was more than 100 µM throughout. The TGI in assay [11], in [12], in assay [13], in assay [14], in assay [15] and in assay [16] was more than 100 µM each time. Besides, the TGI in [17] is more than 100 µM.
In the case of `CCCCCn1cnc2c1S(=O)(=O)N(C)C(NC(=O)c1ccccc1)=N2`, the TGI in assay [1], in assay [2], in [3], in [4], in assay [5] and in assay [6] was more than 100 µM throughout. Moreover, the TGI in assay [7], in [8], in assay [9], in assay [10], in assay [11] and in assay [12] was more than 100 µM in each case. The TGI in [13], in [14], in [15], in assay [16] and in [17] was more than 100 µM throughout.
As for `NC(=O)C(=CN1CC(=O)NC1=S)C(N)=O`, the TGI in assay [1], in assay [2], in assay [3], in assay [20], in assay [4] and in assay [5] was more than 100 µM throughout. Moreover, the TGI in [6], in [7], in [18], in [9], in [10] and in [11] was more than 100 µM throughout. The TGI in [12], in [13], in [14], in assay [15], in [16] and in assay [17] was more than 100 µM each time.
In the case of `COc1cccc(-c2cc(=O)c3cccnc3[nH]2)c1`, the TGI is more than 42.7 µM in assay [1]; more than 100 µM in assay [2]; more than 100 µM in [3]; more than 100 µM in [20]; more than 100 µM in [4]; more than 100 µM in assay [5]. Moreover, the TGI in assay [8], in assay [9], in assay [10], in assay [19], in [11] and in [12] was more than 100 µM each time. The TGI in assay [13] was 0.538 µM; in assay [14], more than 100 µM; in [15] it was more than 100 µM; in assay [16], more than 100 µM; in assay [17], more than 100 µM.
In the case of `COc1ccc(C2S/C(=C\c3cccc(O)c3)C(=O)N2NC(=O)Cc2ccccc2)cc1` (stereo unspecified), the TGI in [1], in assay [2], in [3], in assay [4], in assay [5] and in assay [6] was more than 100 µM each time. The TGI in assay [7], in assay [8], in [10], in assay [11], in [12] and in assay [13] was more than 100 µM throughout. For the same compound, the TGI in assay [15], in assay [16] and in assay [17] was more than 100 µM in each case.
